Measurements from patent US12492181B2, “Gem-disubstituted piperidine melanocortin subtype-2 receptor (MC2R) antagonists and uses thereof” (Crinetics Pharmaceuticals, Inc., priority 2019, dated 2025).

molecular target: T1, hMC2 receptor (crude hMC2R membranes from CRE-bla-CHO-K1 cells stably expressing hMC2 receptor and hMRAP accessory protein) (Homo sapiens, UniProt Q01718); assay: hMC2 membrane binding assay ([125I]ACTH (1-39) Tyr23, SPA); details: displacement of 0.2 nM [125I]ACTH (1-39) Tyr23 from hMC2R membranes, 1.5 hours at room temperature; read-out: MC2R binding potency
T1 construct: crude membrane fractions
T1 sequence (Q01718 whole entry): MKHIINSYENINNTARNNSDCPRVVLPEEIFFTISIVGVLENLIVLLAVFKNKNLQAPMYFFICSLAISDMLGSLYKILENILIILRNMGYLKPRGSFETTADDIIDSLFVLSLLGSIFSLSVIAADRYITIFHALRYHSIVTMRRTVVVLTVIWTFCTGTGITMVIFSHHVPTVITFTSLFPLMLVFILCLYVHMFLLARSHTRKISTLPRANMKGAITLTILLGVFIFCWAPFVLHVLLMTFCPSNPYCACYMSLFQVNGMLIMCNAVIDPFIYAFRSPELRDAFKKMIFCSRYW
T1 sequence (Q8TCY5 whole entry partner): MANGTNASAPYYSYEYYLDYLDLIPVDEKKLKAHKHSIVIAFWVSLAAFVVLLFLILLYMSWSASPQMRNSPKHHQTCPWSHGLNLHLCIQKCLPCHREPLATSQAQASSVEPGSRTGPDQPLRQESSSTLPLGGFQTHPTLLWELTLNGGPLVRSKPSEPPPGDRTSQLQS
Procedure, shortened: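 Crude membranes from CRE-bla-CHO-K1 cells stably co-expressing hMC2R and hMRAP, premixed with WGA PVT SPA beads in pH 7.4 HEPES buffer (5 mM MgCl2, 1 mM CaCl2, 0.20% BSA, protease inhibitors). Compounds compete with [125I]ACTH(1-39) Tyr23, read by scintillation. Ki from non-linear regression.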

SMILES | Ki [nM]
CN1CC[C@@H](NC(=O)C2(c3ccc(-c4ccccc4OC(F)F)nc3)CCN(c3ccc(C(F)(F)F)cc3C#N)CC2)C1 [Compound 1-114, 1-[2-cyano-4-(trifluoromethyl)phenyl]-4-{6-[2-(difluoromethoxy)phenyl]pyridin-3-yl}-N-[(3R)-1-methylpyrrolidin-3-yl]piperidine-4-carboxamide] | < 10
CCOc1ncccc1-c1ccc(C2(C(=O)N[C@H]3CCN(C)C3)CCN(c3ccc(C(F)(F)F)nc3C#N)CC2)cn1 [Compound 1-26, 1-[2-cyano-6-(trifluoromethyl)pyridin-3-yl]-4-{2′-ethoxy-[2,3′-bipyridin]-5-yl}-N-[(3S)-1-methylpyrrolidin-3-yl]piperidine-4-carboxamide] | < 10
COc1ncccc1-c1ccc(C2(C(=O)N[C@@H](C)CN(C)C)CCN(c3ccc(C(F)(F)F)cc3Cl)CC2)cn1 [Compound 1-296, 1-[2-chloro-4-(trifluoromethyl)phenyl]-N-[(2S)-1-(dimethylamino)propan-2-yl]-4-{2′-methoxy-[2,3′-bipyridin]-5-yl}piperidine-4-carboxamide] | < 10
CCOc1c(F)cccc1-c1ccc(C2(C(=O)N[C@@H]3CCN(C)C3)CCN(c3ccc(C(F)(F)F)cc3C#N)CC2)cn1 [Compound 1-72, 1-[2-cyano-4-(trifluoromethyl)phenyl]-4-[6-(2-ethoxy-3-fluorophenyl)pyridin-3-yl]-N-[(3R)-1-methylpyrrolidin-3-yl]piperidine-4-carboxamide] | < 10
CCOc1ccccc1-c1ccc(C2(NC(=O)[C@@H]3CCN(C)C3)CCN(c3ccc(Cl)cc3C#N)CC2)cn1 [Compound 2-29, (3R)—N-[1-(4-chloro-2-cyanophenyl)-4-[6-(2-ethoxyphenyl)pyridin-3-yl]piperidin-4-yl]-1-methylpyrrolidine-3-carboxamide] | < 10
CNCCNC(=O)C1(c2cnc(-c3cccnc3OC)c(F)c2)CCN(c2ccc(C(F)(F)F)cc2F)CC1 [Compound 1-301, 4-{3-fluoro-2′-methoxy-[2,3′-bipyridin]-5-yl}-1-[2-fluoro-4-(trifluoromethyl)phenyl]-N-[2-(methylamino)ethyl]piperidine-4-carboxamide] | < 10
Cc1nocc1-c1ccc(C2(C(=O)N[C@H]3CCN(C)C3)CCN(c3ccc(C(F)(F)F)cc3C#N)CC2)cn1 [Compound 1-149, 1-[2-cyano-4-(trifluoromethyl)phenyl]-4-[6-(3-methyl-1,2-oxazol-4-yl)pyridin-3-yl]-N-[(3S)-1-methylpyrrolidin-3-yl]piperidine-4-carboxamide] | < 10
CCOc1ncccc1-c1ncc(C2(C(=O)NCCN(C)C)CCN(c3ccc(C(F)(F)F)cc3F)CC2)cc1F [Compound 1-284, N-[2-(dimethylamino)ethyl]-4-{2′-ethoxy-3-fluoro-[2,3′-bipyridin]-5-yl}-1-[2-fluoro-4-(trifluoromethyl)phenyl]piperidine-4-carboxamide] | < 10
CN1CC[C@@H](NC(=O)C2(c3ccc(-c4ccccc4OC4CC4)nc3)CCN(c3ccc(C(F)(F)F)cc3C#N)CC2)C1 [Compound 1-89, 1-[2-cyano-4-(trifluoromethyl)phenyl]-4-[6-(2-cyclopropoxyphenyl)pyridin-3-yl]-N-[(3R)-1-methylpyrrolidin-3-yl]piperidine-4-carboxamide] | < 10
CN(C)[C@@H]1COC[C@H]1NC(=O)C1(c2ccc(-c3cccn3C)nc2)CCN(c2ccc(C(F)(F)F)cc2C#N)CC1 [Compound 1-264, 1-[2-cyano-4-(trifluoromethyl)phenyl]-N-[(3S,4S)-4-(dimethylamino)oxolan-3-yl]-4-[6-(1-methyl-1H-pyrrol-2-yl)pyridin-3-yl]piperidine-4-carboxamide] | 10 to 100
COc1ncccc1-c1ncc(C2(C(=O)N[C@H]3CCN(C)C3)CCN(c3ccc(C(F)(F)F)cc3C#N)CC2)cc1F [Compound 1-132, 1-[2-cyano-4-(trifluoromethyl)phenyl]-4-{3-fluoro-2′-methoxy-[2,3′-bipyridin]-5-yl}-N-[(3S)-1-methylpyrrolidin-3-yl]piperidine-4-carboxamide] | < 10
CN1CC[C@H](NC(=O)C2(c3ccc(-c4cccn4C)nn3)CCN(c3ccc(C(F)(F)F)cc3F)CC2)C1 [Compound 1-171, 1-[2-fluoro-4-(trifluoromethyl)phenyl]-4-[6-(1-methyl-1H-pyrrol-2-yl)pyridazin-3-yl]-N-[(3S)-1-methylpyrrolidin-3-yl]piperidine-4-carboxamide] | < 10

Now from value to compound:

Ki [nM] | SMILES
< 10 | CCOc1ncccc1-c1ncc(C2(C(=O)NC[C@H](CO)N(C)C)CCN(c3ccc(C(F)(F)F)cc3C#N)CC2)cc1F [Compound 1-334, 1-[2-cyano-4-(trifluoromethyl)phenyl]-N-[(2R)-2-(dimethylamino)-3-hydroxypropyl]-4-{2′-ethoxy-3-fluoro-[2,3′-bipyridin]-5-yl}piperidine-4-carboxamide]
< 10 | CCc1ccccc1-c1ccc(C2(C(=O)N[C@H]3CCN(C)C3)CCN(c3ccc(C(F)(F)F)cc3Cl)CC2)cn1 [Compound 1-156, 1-[2-chloro-4-(trifluoromethyl)phenyl]-4-[6-(2-ethylphenyl)pyridin-3-yl]-N-[(3S)-1-methylpyrrolidin-3-yl]piperidine-4-carboxamide]
< 10 | CCOc1ccccc1-c1ccc(C2(NC(=O)[C@@H]3CCN(C)C3)CCN(c3ccc(C(F)(F)F)cc3C#N)CC2)cn1 [Compound 2-33, (3R)—N-{1-[2-cyano-4-(trifluoromethyl)phenyl]-4-[6-(2-ethoxyphenyl)pyridin-3-yl]piperidin-4-yl}-1-methylpyrrolidine-3-carboxamide]
< 10 | CCc1sccc1-c1ccc(C2(C(=O)N[C@H]3CCN(C)C3)CCN(c3ccc(C(F)(F)F)cc3C#N)CC2)cn1 [Compound 1-147, 1-[2-cyano-4-(trifluoromethyl)phenyl]-4-[6-(2-ethylthiophen-3-yl)pyridin-3-yl]-N-[(3S)-1-methylpyrrolidin-3-yl]piperidine-4-carboxamide]
< 10 | CN1CC[C@H](NC(=O)C2(c3ccc(-c4cccn4C)nc3)CCN(c3ccc(C(F)(F)F)cc3F)CC2)C1 [Compound 1-173, 1-[2-fluoro-4-(trifluoromethyl)phenyl]-4-[6-(1-methyl-1H-pyrrol-2-yl)pyridin-3-yl]-N-[(3S)-1-methylpyrrolidin-3-yl]piperidine-4-carboxamide]
< 10 | CCOc1ncccc1-c1ccc(C2(NC(=O)O[C@H]3CCN(C)C3)CCN(c3ccc(C(F)(F)F)cc3C#N)CC2)cn1 [Compound 2-18, (3S)-1-methylpyrrolidin-3-yl N-{1-[2-cyano-4-(trifluoromethyl)phenyl]-4-{2′-ethoxy-[2,3′-bipyridin]-5-yl}piperidin-4-yl}carbamate]
< 10 | CN1CC[C@H](NC(=O)C2(c3cnc(-c4cccn4C)c(F)c3)CCN(c3ccc(C(F)(F)F)cc3Cl)CC2)C1 [Compound 1-162, 1-[2-chloro-4-(trifluoromethyl)phenyl]-4-[5-fluoro-6-(1-methyl-1H-pyrrol-2-yl)pyridin-3-yl]-N-[(3S)-1-methylpyrrolidin-3-yl]piperidine-4-carboxamide]
< 10 | COc1ccccc1-c1ccc(C2(NC(=O)OCCN(C)C)CCN(c3ccc(C(F)(F)F)cc3C#N)CC2)cn1 [Compound 2-57, 2-(dimethylamino)ethyl N-{1-[2-cyano-4-(trifluoromethyl)phenyl]-4-[6-(2-methoxyphenyl)pyridin-3-yl]piperidin-4-yl}carbamate]
< 10 | CCOc1ncccc1-c1ccc(C2(NC(=O)[C@H]3CCNC3)CCN(c3ccc(C(F)(F)F)cc3C#N)CC2)cn1 [Compound 2-8, (3S)—N-{1-[2-cyano-4-(trifluoromethyl)phenyl]-4-{2′-ethoxy-[2,3′-bipyridin]-5-yl}piperidin-4-yl}pyrrolidine-3-carboxamide]
< 10 | COc1ncccc1-c1ncc(C2(C(=O)NCCN(C)C)CCN(c3ccc(C(F)(F)F)cc3Cl)CC2)cc1F [Compound 1-302, 1-[2-chloro-4-(trifluoromethyl)phenyl]-N-[2-(dimethylamino)ethyl]-4-{3-fluoro-2′-methoxy-[2,3′-bipyridin]-5-yl}piperidine-4-carboxamide]
< 10 | COc1ccccc1-c1ccc(C2(C(=O)N[C@H]3CCN(C)C3)CCN(c3ccc(Cl)cc3C#N)CC2)cn1 [Compound 1-91, 1-(4-chloro-2-cyanophenyl)-4-[6-(2-methoxyphenyl)pyridin-3-yl]-N-[(3S)-1-methylpyrrolidin-3-yl]piperidine-4-carboxamide]
< 10 | COc1ccccc1-c1ccc(C2(NC(=O)O[C@H]3CCN(C)C3)CCN(c3ccc(C(F)(F)F)cc3C#N)CC2)cn1 [Compound 2-53, (3S)-1-methylpyrrolidin-3-yl N-{1-[2-cyano-4-(trifluoromethyl)phenyl]-4-[6-(2-methoxyphenyl)pyridin-3-yl]piperidin-4-yl}carbamate]
< 10 | CN(C)CCNC(=O)C1(c2ccc(-c3cccn3C)nc2)CCN(c2ccc(C(F)(F)F)cc2F)CC1 [Compound 1-276, N-[2-(dimethylamino)ethyl]-1-[2-fluoro-4-(trifluoromethyl)phenyl]-4-[6-(1-methyl-1H-pyrrol-2-yl)pyridin-3-yl]piperidine-4-carboxamide]
< 10 | CCOc1ncccc1-c1ccc(C2(C(=O)NCCNC)CCN(c3ccc(C(F)(F)F)cc3F)CC2)cn1 [Compound 1-223, 4-{2′-ethoxy-[2,3′-bipyridin]-5-yl}-1-[2-fluoro-4-(trifluoromethyl)phenyl]-N-[2-(methylamino)ethyl]piperidine-4-carboxamide]
< 10 | CN1CC[C@H](NC(=O)C2(c3ccc(-c4cccn4C)nc3)CCN(c3ccc(C(F)(F)F)cc3C#N)CC2)C1 [Compound 1-100, 1-[2-cyano-4-(trifluoromethyl)phenyl]-4-[6-(1-methyl-1H-pyrrol-2-yl)pyridin-3-yl]-N-[(3S)-1-methylpyrrolidin-3-yl]piperidine-4-carboxamide]
